Experimental data as given in article PMC6967409 (Frontiers in Chemistry, 2020).
Several values for one entry are separate records, joined by “and”; a condition that tells them apart may be missing. Equal values may be shown once. Read-outs that look alike come from different tables or passages of the source.

Legend:
P. falciparum K1 [1] = system: P. falciparum K1; design: method as in Coertzen et al. (2018); settings: SYBR Green I; ref Coertzen et al. (2018); read-out: Proliferative IC50 K1; cited from earlier work
P. falciparum NF54 [2] = system: P. falciparum NF54; design: method as in Coertzen et al. (2018); settings: SYBR Green I; ref Coertzen et al. (2018); read-out: Proliferative IC50 NF54; cited from earlier work
P. falciparum Dd2 [3] = system: P. falciparum Dd2; design: method as in Coertzen et al. (2018); settings: pLDH, 48 h; ref Coertzen et al. (2018); read-out: Metabolic IC50 Dd2; cited from earlier work
HepG2 cells [4] = settings: read-out: Cytotoxicity EC50 HepG2; ref Coertzen et al. (2018); cited from earlier work
P. falciparum NF54 [5] = system: P. falciparum NF54; design: method as in Coertzen et al. (2018); settings: pLDH, 48 h; ref Coertzen et al. (2018); read-out: Metabolic IC50 NF54; cited from earlier work
[6] = system: P. falciparum NF54 late stage gametocytes (>90% stage IV and V); assay: Gametocytocidal luciferase reporter assay, late stage, 72 h; type: cell-based, Plasmodium falciparum
Experimental: (§1) P. falciparum parasites (NF54, K1, and W2) were cultured in vitro in human erythrocytes (A^+ or O^+) under 90% N2, 5% CO2, and 5% O2 atmospheric conditions with supplemented RPMI 1640 media (Sigma Aldrich) containing Albumax II, as previously described (Verlinden et al., [2011]). This study was carried out according the guidelines set out by the Faculty of Health Sciences Ethical Committee, Ethical Clearance no. EC-120821/077. The protocol was approved by the Faculty of Health sciences ethical committee at the University of Pretoria. All subjects gave written informed consent in accordance with the Declaration of Helsinki. Parasite proliferation was monitored microscopically using Giemsa stained smears. Synchronized ring stage parasites (>95%) were obtained using a 5% D-sorbitol (Sigma Aldrich) treatment. […] Gametocyte cultures were kept stationary under 90% N2, 5% CO2, and 5% O2 atmospheric conditions at 37°C and treated with 50 mM N-acetyl-glucosamine (NAG) to eliminate residual invasion of asexual parasites.
(§2) Gametocytocidal activity was determined using the luciferase reporter line (Reader et al., [2015]) to derive dose responses with two-fold serial drug dilutions for 48 h against early stage gametocytes (day 5 post-induction population, >90% stage I–III) and 10-fold serial drug dilutions for 72 h against late stage gametocytes (day 10 post-induction population, >90% late stage IV–V) (2% gametocytemia, 2% hematocrit), at 37°C under 90% N2, 5% CO2, and 5% O2 atmospheric conditions.

[7] = Cytotoxicity, Cytoselect LDH cytotoxicity assay kit; type: cell-based; settings: human, HepG2 cells
Experimental: (§3) Cytotoxicity (EC50) was determined against Chinese hamster ovarian (CHO) using a 3-(4,5-dimethylthiazol-2-yl)-2,5-diphenyltetrazolium bromide (MTT) assay and hepatocellular carcinoma cells (HepG2) using the Cytoselect LDH cytotoxicity assay kit (Cell Biolabs).

[8] = system: P. falciparum stage III/IV/V and mature stage V (>95% stage V) gametocytes; assay: Stage-specificity and kill kinetics against late stage gametocytes, luciferase reporter line; type: cell-based; settings: Plasmodium falciparum, 72 h treatment
Experimental: Late stage gametocytes, stage III, IV/V (10% stage III, 50% stage IV, 40% stage V population on day 10 post-induction) or mature stage V (>95% stage V on day 13 post-induction) were used to determine the differential stage specificity and kill kinetics (speed-of-action) of the compounds. Dose responses were determined using the luciferase reporter line, exposed to 10-fold serial drug dilutions for 72 h at 37°C under 90% N2, 5% CO2, and 5% O2 atmospheric conditions. […] Additionally, a drug washout step was included by replacing the drug-containing spent medium with fresh media (without drug) followed by a further 24 h incubation prior to measuring luciferase activity. […] Data are the average from a single independent biological experiment with technical triplicates, error bars indicate ±SD.

[9] = HepG2 cytotoxicity bioluminescence assay (CellTiterGlo, ATP); type: cell-based, human; settings: human, uninfected HepG2-CD81 cells
Outline: (§4)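 HepG2-CD81 cells seeded onto compounds in DMSO, infected with P. berghei luciferase-expressing sporozoites; liver-stage growth read as luciferase bioluminescence after BrightGlo luciferin addition. Cytotoxicity measured in parallel on uninfected HepG2 plates via CellTiterGlo ATP luminescence.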

HepG2 cells [10] = assay: as above; type: cell-based, human; settings: two biological replicates listed in one cell; listed as 28 (WHN-14)
Outline: as §4

P. falciparum Dd2 [11] = assay: Metabolic (parasite LDH) assay, asexual ring stage parasites, 48 h; type: cell-based; settings: Plasmodium falciparum, pLDH, Dd2 CQ, pyrimethamine resistant
Experimental: (§5) Working solutions of the derivatives were prepared from a 10 mM stock solution in 100% DMSO in supplemented RPMI 1640 media containing Albumax II with a final DMSO concentration of <0.1%, previously determined as being non-toxic to intraerythrocytic asexual parasites and gametocytes. Dose responses were assayed using a two-fold serial drug dilution on in vitro >95% ring stage intraerythrocytic P. falciparum parasites at 37°C under 90% N2, 5% CO2, and 5% O2 atmospheric conditions, detecting both parasite lactate dehydrogenase (pLDH) activity as a metabolic marker following a 48 h drug exposure (1.5–2% parasitemia and 2% hematocrit; Makler et al., [1993]) and SYBR Green I fluorescence as proliferative marker following a 96 h drug exposure (1% parasitemia and 1% hematocrit). […] Data analysis was performed using GraphPad Prism 7.

P. falciparum K1 [12] = assay: Proliferative (SYBR Green I) assay, asexual parasites, 96 h; type: cell-based; settings: Plasmodium falciparum, ±SEM
Experimental: as §1, §5

P. falciparum NF54 [13] = assay: as above; type: cell-based; settings: Plasmodium falciparum, ±SEM
Experimental: as §1, §5

P. falciparum W2 [14] = assay: as above; type: cell-based; settings: Plasmodium falciparum, ±SEM
Experimental: as §1, §5

Cytotoxicity, MTT assay = type: cell-based; settings: Chinese hamster, CHO cells
Experimental: as §3

[15] = system: P. falciparum NF54 early stage gametocytes (>90% stage I–III); assay: Gametocytocidal luciferase reporter assay, early stage, 48 h; type: cell-based; settings: Plasmodium falciparum, NF54, 48 h, read-out: Early Stage (EG, Luc 48 h) IC50
Experimental: as §1, §2

P. falciparum W2 [16] = assay: T0 [3H]-hypoxanthine drug susceptibility assay; type: cell-based; settings: Plasmodium falciparum
[17] = system: P. berghei ANKA GFP-Luc-SMcon sporozoites; assay: P. berghei-luciferase liver stage bioluminescence assay (causal prophylactic mode) in HepG2-CD81 cells; type: cell-based, Plasmodium berghei
Outline: as §4

[18] = system: asexual P. falciparum NF54, Dd2, K1, W2; assay: Asexual P. falciparum, metabolic (pLDH) and proliferative (SYBR Green I) platforms; type: cell-based; settings: Plasmodium falciparum; read-out: IC50 for drug sensitive NF54 parasites across both assay platforms
Experimental: Data analysis was performed using GraphPad Prism 7.
The in vitro activities of the new derivatives were determined against drug sensitive NF54 and multi-drug resistant Dd2, K1, and W2 intraerythrocytic asexual P. falciparum malaria parasite strains using both a metabolic (parasite LDH) and a proliferative (SYBR Green I fluorescence) assay readout (Table 1).

P. falciparum NF54 [19] = assay: Metabolic (parasite LDH) assay, asexual ring stage parasites, 48 h; type: cell-based; settings: Plasmodium falciparum, pLDH, CQ-sensitive NF54
Experimental: as §1, §5

[20] = system: P. falciparum ARC08-22 (4G); assay: T0 [3H]-hypoxanthine drug susceptibility assay, artemisinin-resistant clone (C580Y); type: cell-based, Plasmodium falciparum; settings: preliminary, W2 as comparative sensitive strain

CCN(CC)CCCC(C)Nc1ccnc2cc(Cl)ccc12 (centres unmarked) [CQ, chloroquine]
IC50 (P. falciparum K1 [1]): 154 ± 14 nM
IC50 (P. falciparum NF54 [2]): 10 ± 3 nM
IC50 (P. falciparum Dd2 [3]): 251 ± 19.9 nM
EC50 (HepG2 cells [4]): 58.4 nM
IC50 (P. falciparum NF54 [5]): 10 ± 1.6 nM

C[C@H]1[C@H](N2CCN(C(=O)c3ccc(F)cc3)CC2)O[C@@H]2O[C@@]3(C)CC[C@H]4[C@H](C)CC[C@@H]1[C@@]24OO3 [Compound 28]
IC50 ([6]; Plasmodium falciparum, NF54, 72 h, read-out: Late Stage (LG, Luc 72 h) IC50, >90% stage IV and V gametocytes, ±SEM): 0.4 to 0.7 nM
IC50 ([6]; read-out: Late Stage (LG, Luc 72 h) IC50, >90% stage IV and V gametocytes, ±SEM): 0.6 ± 0.3 nM
EC50 [7]: 190 nM
IC50 [8]: < 10 nM
IC50 at 72 h ([9]; two biological replicates listed in one cell): 10200 nM
EC50 at 72 h ([9]; uninfected HepG2, ATP bioluminescence): 8320 nM
HepG2 Cytotoxicity Bioluminescence Assay: Maximum measured (%) (HepG2 cells [10]): 61.7% and 66.5%
IC50 (HepG2 cells [10]): 6440 nM
IC50 (P. falciparum Dd2 [11]): 1.5 ± 0.6 nM
IC50 (P. falciparum K1 [12]): 2.1 ± 1.1 nM
IC50 (P. falciparum NF54 [13]): 2.8 ± 0.2 nM
IC50 (P. falciparum W2 [14]): 2.7 ± 0.2 nM
EC50 (Cytotoxicity, MTT assay): 190000 nM
IC50 [15]: 19.5 ± 8.5 nM
IC50 (P. falciparum W2 [16]; W2, read-out: W2 IC50): 0.1 ± 0.03 nM
IC90 (P. falciparum W2 [16]; W2, read-out: W2 IC90): 0.19 ± 0.02 nM
Emax ([17]; Plasmodium berghei, 48 h, two biological replicates listed in one cell, read-out: P.berghei-Luciferase Liver Stage Bioluminescence Assay: Maximum measured (%)): 101%
IC50 ([17]; Plasmodium berghei, HepG2, 48 h, liver stage, HepG2 host cells, luciferase after 48 h, ±SD, read-out: P. berghei sporozoites IC50): 114 ± 15.6 nM
IC50 ([17]; Plasmodium berghei, two biological replicates listed in one cell, read-out: P.berghei-Luciferase Liver Stage Bioluminescence Assay: IC50): 103 nM
inhibition at 10 µM ([17]; Plasmodium berghei, Conc. 10 μM, read-out: P. berghei sporozoites Maximum inhibition %): 104 ± 4.24%
IC50 ([17]; two biological replicates listed in one cell, listed as 28 (WHN-14), read-out: P.berghei-Luciferase Liver Stage Bioluminescence Assay: IC50): 125 nM
IC50 [18]: 1 to 2 nM
IC50 (P. falciparum NF54 [19]): 1.06 ± 0.19 nM
susceptibility of ARC08-22 (4G) clone (in words) [20]: no indication of reduced susceptibility
